Test results as given in patent publication US12208089B2, “Adjusting expression level of a gene encoding a Sirtuin protein by treating a human subject with a nitroxide” (priority 2021, dated 2025).

Test system: SIRT2
Assay: Effects of Tempol on gene expression in cardiac tissue of mice, chip-based microarray
Assay type: in vivo
Conditions: 5 mg/g of food from 14 to 31 months after birth
Protocol: To assess the effects of Tempol on gene expression, Tempol was administered to experimental mice at a dose of 5 mg/g of food from 14 months to 31 months after birth. Mice receiving the same food without the addition of Tempol were used as a negative control. At the age of 31 months, the experimental animals were sacrificed and the hearts were surgically removed. The expression of a broad spectrum of genes in the cardiac tissue was assessed using chip-based microarray technology. Such chips are well known in the art and are widely used to assess gene expression.

CC1(C)CC(O)CC(C)(C)N1[O] [Tempol, 4-hydroxy-2,2,6,6-tetramethylpiperidine-1-oxyl]
Fold change (SIRT2 expression in cardiac tissue after Tempol administration) (hearts at 31 months, vs. same food without Tempol, P-value 0.00): 1.16 | SIRT2 expression in the cardiac tissue (microarray, vs. negative control): statistically significant increase in expression
